# Assay results from ChEMBL document CHEMBL5247647, “Phenothiazine-Based LSD1 Inhibitor Promotes T-Cell Killing Response of Gastric Cancer Cells” (J Med Chem, 2023).
# Activity calls are given as the source filed them. No cut-off for these calls is given here.
# Key:
# BGC-823 [1] = experiment: Downregulation of PD-L1 mRNA expression in human BGC-823 cells at 5 to 5 to 20 uM incubated for 5 days; format: functional, cell-based; conditions: dose 5-20 µM, time 5.0 day
# [2] = target: Programmed cell death protein 1/Programmed cell death 1 ligand 1 (Homo sapiens) (UniProt Q15116+Q9NZQ7); experiment: Inhibition of PD-L1/PD-1 interaction in human BGC-823 cells assessed as decrease in binding of PD-1 to cell membrane at 5 to 20 uM incubated for 5 days followed by recombinant PD-1-Fc protein addition by confocal microscopy analysis; format: cell-based; conditions: dose 5-20 µM, time 5.0 day
# MFC [3] = experiment: Antitumor activity against mouse MFC cells xenografted in 615 mouse assessed as increase in IFNgamma expression level in tumor at 10 to 50 mg/kg, po for 14 days by ELISA; format: functional, organism-based; conditions: dose 10-50 mg/kg, time 14.0 day
# MFC [4] = experiment: Antiproliferative activity against mouse MFC cells assessed as inhibition of cell proliferation incubated for 48 hrs by SRB assay; format: functional, cell-based
# BGC-823 [5] = experiment: Downregulation of PD-L1 expression in human LSD1 knockout BGC-823 cells transfected with wild type LSD1 plasmid at 20 uM incubated for 5 days by Western blot anlaysis; format: functional, cell-based; conditions: time 5.0 day
# [6] = target: T1, Lysine-specific histone demethylase 1A (Homo sapiens, UniProt O60341); experiment: Inhibition of human LSD1 in human LSD1 knockout BGC-823 cells assessed as effect on H3K4me3 methylation at 5 to 20 uM incubated for 5 days by Western blot anlaysis; format: cell-based; conditions: dose 5-20 µM, time 5.0 day
# MFC [7] = experiment: Antitumor activity against mouse MFC cells xenografted in 615 mouse assessed as increase in infiltration of CD8+ T cells into tumor at 10 to 50 mg/kg, po for 14 days by immunohistochemistry; format: functional, organism-based; conditions: dose 10-50 mg/kg, time 14.0 day
# [8] = Toxicity against 615 mouse xenografted with mouse MFC cells in assessed as pathological changes in heart at 10 to 50 mg/kg, po for 14 days by Hematoxylin and Eosin staining based microscopic analysis; format: organism-based; conditions: in vivo, 336 h, dose 10-50 mg/kg, time 14 day
# MFC [9] = experiment: Antitumor activity against mouse MFC cells xenografted in 615 mouse assessed as increase in IL-2 expression level in tumor at 10 to 50 mg/kg, po for 14 days by ELISA; format: functional, organism-based; conditions: dose 10-50 mg/kg, time 14.0 day
# BGC-823 [10] = experiment: Downregulation of PD-L1 expression in human LSD1 knockout BGC-823 cells at 5 to 20 uM incubated for 5 days by Western blot anlaysis; format: functional, cell-based; conditions: dose 5-20 µM, time 5.0 day
# BGC-823 [11] = experiment: Downregulation of PD-L1 expression in human BGC-823 cells at 5 to 20 uM incubated for 5 days by Western blot anlaysis; format: functional, cell-based; conditions: dose 5-20 µM, time 5.0 day
# MFC [12] = experiment: Antitumor activity against mouse MFC cells xenografted in 615 mouse assessed as decrease in tumor weight at 10 to 50 mg/kg, po for 14 days; format: functional, organism-based; conditions: dose 10-50 mg/kg, time 14.0 day
# [13] = target: T1, Lysine-specific histone demethylase 1A; experiment: Inhibition of human LSD1 in human LSD1 knockout BGC-823 cells assessed as effect on H3K4me1 methylation at 5 to 20 uM incubated for 5 days by Western blot anlaysis; format: cell-based; conditions: dose 5-20 µM, time 5.0 day
# MFC [14] = experiment: Antitumor activity against mouse MFC cells xenografted in 615 mouse assessed as increase in infiltration of CD3+ T cells into tumor at 10 to 50 mg/kg, po for 14 days by immunohistochemistry; format: functional, organism-based; conditions: dose 10-50 mg/kg, time 14.0 day
# MAO-B = target: T2, MAO-B (Homo sapiens, UniProt P27338); experiment: Inhibition of recombinant human MAO-B at 10 uM
# T2 sequence (P27338 whole entry): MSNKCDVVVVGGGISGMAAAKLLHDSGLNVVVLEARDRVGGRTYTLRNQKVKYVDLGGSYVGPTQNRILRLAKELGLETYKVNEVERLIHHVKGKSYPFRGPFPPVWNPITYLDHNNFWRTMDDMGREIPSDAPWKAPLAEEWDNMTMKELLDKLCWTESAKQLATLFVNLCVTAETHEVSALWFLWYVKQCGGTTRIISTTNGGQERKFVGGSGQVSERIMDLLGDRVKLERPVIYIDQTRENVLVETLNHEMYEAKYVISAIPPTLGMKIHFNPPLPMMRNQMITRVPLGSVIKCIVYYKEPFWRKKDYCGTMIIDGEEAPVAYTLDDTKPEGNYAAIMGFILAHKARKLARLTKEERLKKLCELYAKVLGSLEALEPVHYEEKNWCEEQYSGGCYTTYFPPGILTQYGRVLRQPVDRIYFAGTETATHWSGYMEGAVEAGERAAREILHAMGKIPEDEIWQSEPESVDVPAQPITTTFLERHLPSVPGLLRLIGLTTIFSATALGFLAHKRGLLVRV
# MFC [15] = experiment: Antitumor activity against mouse MFC cells xenografted in 615 mouse assessed as tumor growth suppression at 10 to 50 mg/kg, po for 14 days; format: functional, organism-based; conditions: dose 10-50 mg/kg, time 14.0 day
# BGC-823 [16] = experiment: Downregulation of PD-L1 expression in human BGC-823 cell membrane at 5 to 20 uM incubated for 5 days by Western blot anlaysis; format: functional, cell membranes; conditions: dose 5-20 µM, time 5.0 day
# MFC [17] = experiment: Antitumor activity against mouse MFC cells xenografted in 615 mouse assessed as decrease in intratumoral PD-L1 expression at 10 to 50 mg/kg, po for 14 days by Western blot analysis; format: functional, organism-based; conditions: dose 10-50 mg/kg, time 14.0 day
# BGC-823 [18] = experiment: Anticancer activity against human BGC-823 cells assessed as increase in CD3/CD28 activated T-cell killing response by measuring TNFalpha level at 5 to 20 uM incubated for 5 days by Sandwich ELISA; format: functional, cell-based; conditions: dose 5-20 µM, time 5.0 day
# [19] = target: T1, Lysine-specific histone demethylase 1A; experiment: Inhibition of human LSD1 in human BGC-823 cells assessed as inhibition of H3K4me1 demethylation at 5 to 20 uM incubated for 5 days by Western blot anlaysis; format: cell-based; conditions: dose 5-20 µM, time 5.0 day
# MFC [20] = experiment: Downregulation of PD-L1 expression in mouse MFC cells at 5 to 20 uM incubated for 5 days by Western blot anlaysis; format: functional, cell-based; conditions: dose 5-20 µM, time 5.0 day
# BGC-823 [21] = experiment: Downregulation of PD-L1 expression in human LSD1 knockout BGC-823 cells transfected with […] K661A mutant plasmid at 20 uM incubated for 5 days by Western blot anlaysis; format: functional, cell-based; conditions: time 5.0 day
structure (smiles),measurement,setting,value
c1ccc2c(c1)Sc1ccccc1N2CCN1CCOCC1,Activity,BGC-823 [1],Dose-Dependent Effect
same,inhibition,[2],Dose-Dependent Effect
same,Activity,MFC [3],Active
same,Activity,MFC [4],inactive
same,Activity,BGC-823 [5],Active
same,inhibition,[6],inactive
same,Activity,MFC [7],Active
same,Activity,[8],Non-Toxic
same,Activity,MFC [9],Active
same,Activity,BGC-823 [10],inactive
same,Activity,BGC-823 [11],Dose-Dependent Effect
same,Activity,MFC [12],Active
same,inhibition,[13],inactive
same,Activity,MFC [14],Active
same,inhibition at 10 µM,MAO-B,< 10%
same,Activity,MFC [15],Dose-Dependent Effect
same,Activity,BGC-823 [16],Dose-Dependent Effect
same,Activity,MFC [17],Dose-Dependent Effect
same,Activity,BGC-823 [18],Active
same,inhibition,[19],Active
same,Activity,MFC [20],Dose-Dependent Effect
same,Activity,BGC-823 [21],inactive
